Data from US4524059A, “Fatty acid analogs” (The General Hospital Corporation, priority 1983, dated 1985).
Read-outs that look alike come from different tables or passages of the source.

Assays:
[1] = Imaging study of a canine heart one hour post-LAD ligation; type: in vivo; details: dog
Excerpt: In addition to its long retention time, [^11 C] […] An imaging study of a canine heart following [^11 C]

[2] = Myocardial kinetics by positron tomography in adult, fasted, human volunteers; type: in vivo; details: 1-5 mCi intravenously
Method: (§1) The myocardial kinetics of BMHDA are evaluated in adult, fasted, human volunteers by positron tomography. Following attenuation measurements, volunteers receive between 1-5 mCi [^11 C] BMHDA intravenously and serial images are recorded for 30 min. No changes in heart rate, blood pressure, ECG, or respiratory rate are observed.

[3] = Heart rate, blood pressure, ECG and respiratory rate in human volunteers receiving the tracer; type: in vivo; details: 1-5 mCi intravenously
Method: as §1

[4] = Tissue distribution study in CD Fischer rats (organ radioactivity, NaI well scintillation counter); type: in vivo; details: rat
Method: CD Fischer rats (175-225 g) are anesthetized with ether and 0.2 ml ([…]) of [^11 C] BMHDA is injected through the femoral vein. The rats are sacrificed by ether asphyxiation at 5, 15, 30, and 60 minutes after dosing. The appropriate organs are excised and radioactivity measured in a NaI (T1) well scintillation counter.

[5] = dog, in vivo
Method: (§2) Mongrel dogs are anesthetized with sodium pentabarbitol (Diabatol, 0.55 cc/kg) and 0.8-3 mCi of [^11 C] MHDA is injected through a femoral vein. After 1 minute, serial blood samples are taken using a femoral vein catheter to determine the blood clearance rate. A 3 ml aliquot is taken every minute for the first 5 minutes, every 5 minutes for the next 15 minutes, and every 10 minutes for the next hour. The blood samples are weighed, counted in a well-scintillation counter, and the activity corrected for decay.
(§3) In order to determine the distribution over time of the [^11 C] […] Prior to imaging, each dog is placed between the camera heads, a phantom filled with an aqueous solution of ^68 Ga Cl3 is placed beneath the animal, and transmission images taken. Sequential images are collected for 1 minute each at the following times: 3 minutes, 8 minutes, 13 minutes, 28 minutes, 48 minutes, and 60 minutes. The images are corrected for decay and for photon attenuation.
(§4) In a companion biodistribution study, uptake in 2 dogs in different areas of the myocardium and average uptake for the whole heart are determined. […] Positron tomography images are obtained of the heart and liver of the 2 dogs 3, 13, and 48 minutes after injection with [^11 C] […] Into each dog there is injected, sequentially, [^11 C] […] HDA.

[6] = Biodistribution and positron tomography imaging of the heart and liver in mongrel dogs; details: dog, images 3, 13 and 48 minutes after injection, [^11 C] BMHDA versus [^11 C] HDA
Method: as §2, §3, §4

[7] = Sequential positron tomography imaging of the heart in a mongrel dog, 201Tl as control; type: in vivo
Method: Solutions of [^131 I]-BMPTA and, as a control, ^201 T1, are injected sequentially in a mongrel dog. After each injection, sequential images of the dog's heart are obtained using positron tomography.

Biodistribution in mice = type: in vivo
[8] = throughout the monitoring period

Compound: CCCCCCCCCCCCCCC(C)C[11C](=O)O (stereo not drawn) [[^11 C] BMHDA, [1-^11 C] beta-methylheptadecanoic acid]
- uptake in normal areas of the heart [1]: very high uptake
- uptake in the apex, the region in which the infarct is located [1]: much lower uptake
- uptake pattern [1]: desirably selective uptake pattern
- time in which myocardial activity approaches a constant level [2]: ≤ 3 min
- myocardial activity for the remainder of the observation ([2]; serial images for 30 min): constant for the remainder of the observation
- ECG [3]: No changes
- blood pressure [3]: No changes
- heart rate [3]: No changes
- respiratory rate [3]: No changes
- extraction by the heart muscle ([4]; i.v. (femoral vein), 5-60 min): selectively extracted by the heart muscle
- retention of radioactivity in the heart ([4]; i.v. (femoral vein), 5-60 min): retained in the heart for up to one hour
- liver activity ([4]; i.v., 5-60 min): increases during the course of the study
- lung activity ([4]; i.v., compared with heart activity): at all times lower than heart activity
- radioactivity in the myocardium over time [5]: remains constant throughout the experiment (60 minutes)
- region of highest regional uptake in the myocardium [5]: left ventricle
- wash-out from / retention in the myocardium [5]: much higher retention in the myocardium

Compound: CCCCCCCCCCCCCCCCC(=O)O [[^11 C] HDA, [^11 C] heptadecanoic acid]
- wash-out from / retention in the myocardium [6]: rapidly washes out of the tissue

Compound: CC(CCCCCCCCCCCc1ccc([131I])cc1)CC(=O)O (stereo not drawn) [[^131 I]-BMPTA, Beta-methyl-omega-(p-[^131 I]iodophenyl) tetradecanoic acid]
- retention by the heart muscle compared to ^201 T1 [7]: longer retention
- time after injection over which clear images of the heart are obtained [7]: as long as two hours after the injection
- activity in the heart over the initial 60 minute period ([7]; 60 minutes): remains essentially the same
- time of peak uptake by the kidney (Biodistribution in mice): 15 min
- uptake in the heart (Biodistribution in mice; 5 minutes after injection): high levels of uptake
- uptake in the liver (Biodistribution in mice; 5 minutes after injection): high levels of uptake
- uptake by the kidney after the peak (Biodistribution in mice; 30 minutes after injection): declining slightly
- maintenance of radioactivity in heart and liver (Biodistribution in mice; over the 30 minutes of the experiment): high levels of radioactivity generally being maintained
- radioactivity in blood (Biodistribution in mice; [8]): lower throughout the monitoring period
- radioactivity in skeletal muscle (Biodistribution in mice; [8]): lower throughout the monitoring period
- radioactivity in the lungs (Biodistribution in mice; [8]): lower throughout the monitoring period
